Results reported in publication PMC10069031 (European Journal of Medical Research, 2023).
Read-outs that look alike come from different tables or passages of the source.

Key:
murine CSF1R = biological target: T1, murine CSF1R (Mus musculus, UniProt P09581); assay: CSF1R inhibition in RAW264.7 cells (western blot of pCSF1R); format: cell-based
T1 construct: Western blot analysis of total lysates (40 µg/lane) from mouse RAW264.7 cells treated as indicated; endogenous in cells; host or cells: RAW264.7 (murine macrophages)
T1 sequence (P09581 20-977): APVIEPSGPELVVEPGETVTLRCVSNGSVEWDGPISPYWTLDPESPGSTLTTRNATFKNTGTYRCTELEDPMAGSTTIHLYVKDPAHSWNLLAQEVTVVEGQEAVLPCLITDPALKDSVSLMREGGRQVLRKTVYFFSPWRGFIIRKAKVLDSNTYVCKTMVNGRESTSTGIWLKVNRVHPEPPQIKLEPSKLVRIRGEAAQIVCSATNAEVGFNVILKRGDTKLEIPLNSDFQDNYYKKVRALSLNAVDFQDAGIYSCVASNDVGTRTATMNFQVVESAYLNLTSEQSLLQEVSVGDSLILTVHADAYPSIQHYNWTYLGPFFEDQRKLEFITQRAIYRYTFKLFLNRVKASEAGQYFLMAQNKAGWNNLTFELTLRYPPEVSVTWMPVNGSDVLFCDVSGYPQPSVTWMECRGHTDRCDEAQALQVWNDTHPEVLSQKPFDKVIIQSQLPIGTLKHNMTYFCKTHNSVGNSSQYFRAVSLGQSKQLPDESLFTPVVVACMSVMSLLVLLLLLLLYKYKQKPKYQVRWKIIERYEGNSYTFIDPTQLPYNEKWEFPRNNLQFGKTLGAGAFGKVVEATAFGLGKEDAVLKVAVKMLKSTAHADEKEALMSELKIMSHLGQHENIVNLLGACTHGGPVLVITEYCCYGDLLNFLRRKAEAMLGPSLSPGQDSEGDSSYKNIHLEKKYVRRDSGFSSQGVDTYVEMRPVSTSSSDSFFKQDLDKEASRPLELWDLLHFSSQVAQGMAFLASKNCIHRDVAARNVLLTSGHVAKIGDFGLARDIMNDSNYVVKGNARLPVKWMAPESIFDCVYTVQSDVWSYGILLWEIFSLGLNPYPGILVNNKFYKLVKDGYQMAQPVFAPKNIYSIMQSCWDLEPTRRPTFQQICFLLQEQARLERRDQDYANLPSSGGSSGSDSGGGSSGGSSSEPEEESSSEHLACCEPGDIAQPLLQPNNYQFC
Protocol: RAW264.7 cells (10^6) were seeded into cell culture dishes 6 cm in diameter and incubated in 4 mL RPMI/10% fetal bovine serum (Biochrom) for 24 h at 37 °C in a humidified 5% CO2 atmosphere. Cells were washed once with phosphate-buffered saline (PBS) and starved in 3 mL RPMI/0.1% bovine serum albumin for another 24 h. Cells were then treated for 1 h at 37 °C with drugs at the indicated final concentrations, with 0.5% DMSO as vehicle control, or left untreated, and finally stimulated for 2 min at 37 °C with 100 ng/mL recombinant mouse CSF1 (R&D Systems) by adding 1 mL prewarmed starving medium containing 400 ng/mL CSF1. Dishes were placed on ice and cells were immediately washed with ice-cold PBS and lysed with 50 µL lysis buffer (50 mM HEPES pH 7.5, 150 mM NaCl, 1.5 mM MgCl2, 10% glycerol, 1% Triton X-100, 0.5% desoxycholate, 0.2% sodium dodecyl sulfate, 1 mM ethylene glycol-bis[β-aminoethyl ether]-N,N,N′,N′-tetraacetic acid, 100 mM NaF, 10 mM Na4P2O7, 1 mM Na3VO4, 1% Phosphatase Inhibitor Cocktail 3 [Sigma-Aldrich], 1 mM phenylmethyl sulfonyl fluoride, Complete Protease Inhibitor Cocktail [Roche CustomBiotech; 1 tablet/10 mL], and 50 U/mL Benzonase [Sigma-Aldrich]). Lysed cells were scraped into Eppendorf tubes, incubated on ice for 20 min, and centrifuged at 4 °C for 10 min at 13,000 rpm; supernatants (lysates) were transferred into new tubes and stored at −80 °C.
Protein concentrations were determined using Pierce bicinchoninic acid assay (Thermo Fisher Scientific) and 40 µg/lane of total lysate was separated by SDS-PAGE on 4–12% Criterion XT Bis–Tris Gels (Bio-Rad) and subsequently transferred to polyvinylidene difluoride membranes using the Trans Blot Turbo Blotting System (Bio-Rad). For antigen detection, membranes were blocked with PBS Odyssey blocking reagent (LI-COR Biosciences) for 1 h at room temperature (RT). Primary antibodies were incubated overnight at 4 °C and the fluorescent secondary antibodies were incubated for 1 h at RT. After each antibody incubation, blots were washed with PBS with 0.05% Tween 20 (Carl Roth) for 15–30 min at RT. Fluorescent signals were quantitatively captured using the Odyssey DLx Infrared Imaging System (LI-COR Biosciences) and the half-maximal inhibitory concentration (IC50) values were calculated using GraphPad software (version 7 or newer).

CCL2 = CCL2 in MC38 tumors; format: in vivo, mouse; settings: REG 5 and 10 mg/kg/day
Protocol: For tumors, snap-frozen tissue was subjected to cryogenic grinding using a Mixer Mill MM 400 and stainless steel beads (7 mm in diameter; Retsch) and subsequently lysed in Tris Lysis Buffer (Meso Scale Diagnostics). The lysates were centrifuged at 25,000 g at 4 °C for 10 min, protein concentrations were determined using the 660 nm protein assay kit (Pierce), and 2–20 μg of lysate was used for CCL2 analysis. CCL2 concentrations were related to the amounts of tumor tissue taken for the lysis procedure.
Five analysis of variance (ANOVA) models were applied to analyze the log10-transformed values of the tumor weight in the CT26 study, the CCL2 levels in the tumor in the CT26 and MC38 studies, and the CCL2 levels in the PB in the CT26 and MC38 studies. The standard assumption of equal variances between treatment groups was applied for all endpoints, except for CCL2 levels in the tumor in the MC38 study, for which unequal variances between treatment groups were allowed. A negative binomial regression model was applied to evaluate percentages of CD115^hi and F4/80^hi cells within the CD45^+ cell population in PB and tumor tissue, respectively.
In vivo passaging was initiated by transplanting fragments of cryo-preserved MC38 tumors of early passages (<p5) subcutaneously into 6–8-week-old female C57BL/6 mice. […]

IC50 (murine CSF1R; RAW264.7 cells, drug 1 h, CSF1 100 ng/mL 2 min, mean ± SD (replicates), M-4, M-5 from pCSF1R bands without relating to total CSF1R, read-out: Mean kinase IC50 values: P(Y559)CSF1R [WB]): 59 ± 16 nM
IC50 (murine CSF1R; RAW264.7 cells, drug 1 h, CSF1 100 ng/mL 2 min, mean ± SD (replicates), M-4, M-5 from pCSF1R bands without relating to total CSF1R, read-out: Mean kinase IC50 values: P(Y721)CSF1R [WB]): 27 ± 14 nM
IC50 (murine CSF1R; approximate value of the discussion, read-out: IC50, murine CSF1R in RAW264.7 macrophages): ~30 nM
Structure (SMILES): CNC(=O)c1cc(Oc2ccc(NC(=O)Nc3ccc(Cl)c(C(F)(F)F)c3)c(F)c2)ccn1 [REG, Regorafenib]
CCL2 concentrations in MC38 tumors (CCL2): dose dependently increased
